Results reported in patent US12643887B2, “Heterocyclic derivatives with cardiomyocyte proliferation activity for treatment of heart diseases” (Tongji University, priority 2019, dated 2026).

How the values were obtained:
Assay type in all cases: biochemical
human HIPK2 = target: T1, human HIPK2 (Homo sapiens, UniProt Q9H2X6); test: HIPK2 enzyme assay (ADP-Glo); conditions: ADP-Glo, ATP 5 μM; read-out: HIPK2 IC50
T1 construct: Recombinant human HIPK2 (1-640); GST (N); purchased SignalChem H04-11BG; host or cells: Sf9 insect cells
In short: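 GST-tagged HIPK2 (1-640) from Sf9, 1 nM, preincubated 30 min at 25° C with inhibitor in 40 mM Tris pH 7.5, 20 mM MgCl2. Reaction ran 90 min at 25° C with GST-MBP substrate at 0.05 mg/ml and 5 μM ATP. ADP-Glo luminescence; IC50 by four-parameter logistic fit.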

human DYRK1A = target: T2, human DYRK1A (Homo sapiens, UniProt Q13627); test: DYRK1A enzyme assay (ADP-Glo); conditions: ADP-Glo, ATP 60 μM; read-out: DYRK1A IC50
T2 construct: Recombinant full-length DYRK1A (expressed in E. Coli cells with an N-terminal GST tag); GST (N); purchased SignalChem D09-10G; host or cells: E. coli
In short: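 GST-tagged full-length human DYRK1A (E. coli, 3 nM) preincubated 30 min at 25 °C with compound in 40 mM Tris pH 7.5, 20 mM MgCl2, 0.1 mg/ml BSA, 50 μM DTT, then reacted 60 min with 20 μM DYRKtide and 60 μM ATP. ADP-Glo luminescence; IC50 by four-parameter logistic fit.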

human CIT = target: T3, human CIT (Homo sapiens, UniProt O14578); test: CIT enzyme assay (ADP-Glo); conditions: ADP-Glo, ATP 5 μM; read-out: CIT IC50
T3 construct: Recombinant human CIT (1-499); GST (N); purchased SignalChem C52-11G; host or cells: Sf9 insect cells
Description: The ability of compounds to inhibit human CIT kinase activities was determined using a commercially available ADP-Glo™ Kinase Assay kit (Promega, Cat #V9102) according to the manufacturer's protocol.
Recombinant human CIT (1-499) (expressed in Sf9 insect cells with an N-terminal GST tag) was purchased from SignalChem (Cat #C52-11G). Recombinant full length human MBP (expressed in E. Coli cells with an N-terminal GST tag) was purchased from SignalChem (Cat #M42-54G). This assay, run in a 384-well plate format, is a generic method for measuring kinase activities using an ADP-Glo Kinase Assay Kit. The basic assay procedure involves two steps: (1) Enzymatic step: inhibitors are incubated with the kinase and then ATP (included in the ADP-Glo Kinase Assay Kit) and the MBP protein are added to start the enzymatic reaction; (2) Detection step: after the kinase reaction, first ADP-Glo™ Reagent is added to terminate the kinase reaction and deplete the remaining ATP. Second, the Kinase Detection Reagent is added to simultaneously convert ADP to ATP and allow the newly synthesized ATP to be measured using a luciferase/luciferin reaction. The light generated is measured using a luminometer.
Briefly, CIT (20 nM) in the enzymatic buffer solutions (40 mM Tris, pH 7.5, 20 mM MgCl2, 0.1 mg/ml BSA, 50 μM DTT) were mixed with various concentrations of inhibitors (dissolved in 100% DMSO). These solutions were incubated for 30 minutes at 25° C., and subsequently a mixture of substrate peptide and ATP was added with the final peptide and ATP concentrations at 0.05 mg/ml and 5 μM, respectively. The final reaction mixture of enzyme-substrate-ATP-compound was incubated for 90 minutes at 25° C.
Afterwards ADP-Glo™ Reagent was added and the mixture was incubated at 25° C. for 60 minutes. Then Kinase Detection Reagent was added, and the final mixture was incubated at 25° C. for 60 minutes. The luminescence signal of the final solution was measured on an Envision instrument (PerkinElmer). The percent (%) inhibition at each concentration of a compound is calculated relative to the luminescence signal in the Max and Min control wells contained within each assay plate. […] The concentrations and percent inhibition values for a test compound are plotted and the concentration of the compound required to achieve 50% inhibition (IC50) is determined with a four-parameter logistic dose response equation.

T1 sequence (Q9H2X6 1-640): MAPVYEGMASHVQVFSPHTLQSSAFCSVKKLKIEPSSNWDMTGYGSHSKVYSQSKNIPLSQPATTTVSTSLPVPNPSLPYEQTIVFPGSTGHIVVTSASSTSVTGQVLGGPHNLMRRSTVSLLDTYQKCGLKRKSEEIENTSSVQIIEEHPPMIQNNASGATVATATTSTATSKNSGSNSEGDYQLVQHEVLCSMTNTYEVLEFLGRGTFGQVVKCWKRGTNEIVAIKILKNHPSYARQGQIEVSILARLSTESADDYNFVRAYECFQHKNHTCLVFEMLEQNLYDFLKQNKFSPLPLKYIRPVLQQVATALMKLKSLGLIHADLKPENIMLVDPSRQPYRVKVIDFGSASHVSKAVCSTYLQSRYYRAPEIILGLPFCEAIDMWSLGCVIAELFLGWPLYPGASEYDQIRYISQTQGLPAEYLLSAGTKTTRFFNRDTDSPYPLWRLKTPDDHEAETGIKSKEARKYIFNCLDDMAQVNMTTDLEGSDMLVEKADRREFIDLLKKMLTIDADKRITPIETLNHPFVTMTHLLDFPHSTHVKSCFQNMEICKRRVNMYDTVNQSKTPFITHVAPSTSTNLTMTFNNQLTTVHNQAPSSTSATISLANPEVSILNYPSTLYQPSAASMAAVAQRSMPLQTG
T3 sequence (O14578 1-499): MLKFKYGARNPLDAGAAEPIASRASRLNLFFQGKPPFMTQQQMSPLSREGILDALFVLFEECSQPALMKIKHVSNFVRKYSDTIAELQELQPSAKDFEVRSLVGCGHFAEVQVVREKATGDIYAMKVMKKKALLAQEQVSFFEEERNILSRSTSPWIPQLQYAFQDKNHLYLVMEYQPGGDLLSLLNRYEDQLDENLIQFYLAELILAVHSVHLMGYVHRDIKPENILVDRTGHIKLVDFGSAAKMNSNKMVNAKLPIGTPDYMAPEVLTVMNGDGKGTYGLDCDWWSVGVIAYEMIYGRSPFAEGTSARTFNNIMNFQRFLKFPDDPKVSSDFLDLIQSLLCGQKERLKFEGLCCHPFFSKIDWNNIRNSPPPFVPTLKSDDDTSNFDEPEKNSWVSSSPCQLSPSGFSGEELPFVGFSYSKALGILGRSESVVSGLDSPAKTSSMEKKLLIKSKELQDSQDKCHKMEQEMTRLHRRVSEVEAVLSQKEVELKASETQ

SMILES	IC50 (human HIPK2)	IC50 (human DYRK1A)	IC50 (human CIT)
CN(C1=N/C(=C\c2ccc3c(c2)OCO3)C(=O)N1)c1ccccc1 [Example 1, (Z)-5-(benzo[d][1,3]dioxol-5-ylmethylene)-2-(methyl(phenyl)amino)-3,5-dihydro-4H-imidazol-4-one]	> 10000 nM	100 to 1000 nM	> 10000 nM
O=C1/C(=C/c2ccc3c(c2)OCO3)N=C(N(Cc2ccccc2)c2ccccc2)N1Cc1ccccc1 [Example 2, (Z)-5-(benzo[d][1,3]dioxol-5-ylmethylene)-3-benzyl-2-(benzyl(phenyl)amino)-3,5-dihydro-4H-imidazol-4-one]	> 10000 nM	1000 to 10000 nM	> 10000 nM
CN(C1=N/C(=C\c2ccc3ncsc3c2)C(=O)N1)c1ccccc1 [Example 7, (Z)-5-(benzo[d]thiazol-6-ylmethylene)-2-(methyl(phenyl)amino)-3,5-dihydro-4H-imidazol-4-one]	1000 to 10000 nM	100 to 1000 nM	100 to 1000 nM
CN(CC1CC1)C1=N/C(=C\c2ccc3c(c2)OCO3)C(=O)N1 [Example 11, (Z)-5-(benzo[d][1,3]dioxol-5-ylmethylene)-2-((cyclopropylmethyl)(methyl)amino)-3,5-dihydro-4H-imidazol-4-one]	> 10000 nM	100 to 1000 nM	> 10000 nM
O=C1NC(N(CCO)c2ccccc2)=N/C1=C\c1ccc2c(c1)OCO2 [Example 13, (Z)-5-(benzo[d][1,3]dioxol-5-ylmethylene)-2-((2-hydroxyethyl)(phenyl)amino)-3,5-dihydro-4H-imidazol-4-one]	1000 to 10000 nM	100 to 1000 nM	> 10000 nM
COc1ccccc1N(C)C1=N/C(=C\c2ccc3c(c2)OCO3)C(=O)N1 [Example 21, (Z)-5-(benzo[d][1,3]dioxol-5-ylmethylene)-2-((2-methoxyphenyl)(methyl)amino)-3,5-dihydro-4H-imidazol-4-one]	> 10000 nM	100 to 1000 nM	> 10000 nM
O=C1NC(N(Cc2ccccc2)c2ccccc2)=N/C1=C\c1ccc2c(c1)OCO2 [Example 22, (Z)-5-(benzo[d][1,3]dioxol-5-ylmethylene)-2-(benzyl(phenyl)amino)-3,5-dihydro-4H-imidazol-4-one]	> 10000 nM	> 10000 nM	> 10000 nM
CN(Cc1ccccc1)C1=N/C(=C\c2ccc3c(c2)OCO3)C(=O)N1 [Example 23, (Z)-5-(benzo[d][1,3]dioxol-5-ylmethylene)-2-(benzyl(methyl)amino)-3,5-dihydro-4H-imidazol-4-one]	> 10000 nM	100 to 1000 nM	> 10000 nM
CN(C1=N/C(=C\c2ccc3c(c2)OCO3)C(=O)N1)c1ccc(N)cc1 [Example 37, (Z)-2-((4-aminophenyl)(methyl)amino)-5-(benzo[d][1,3]dioxol-5-ylmethylene)-3,5-dihydro-4H-imidazol-4-one]	> 10000 nM	1000 to 10000 nM	> 10000 nM
COc1ccc(N(C)C2=N/C(=C\c3ccc4ncsc4c3)C(=O)N2)cc1 [Example 38, (Z)-5-(benzo[d]thiazol-6-ylmethylene)-2-((4-methoxyphenyl)(methyl)amino)-3,5-dihydro-4H-imidazol-4-one]	1000 to 10000 nM	100 to 1000 nM	1000 to 10000 nM
O=C1NC(Nc2ccc(Cl)cc2)=N/C1=C\c1ccc2ncsc2c1 [Example 40, (Z)-5-(benzo[d]thiazol-6-ylmethylene)-2-((4-chlorophenyl)amino)-3,5-dihydro-4H-imidazol-4-one]	1000 to 10000 nM		100 to 1000 nM
O=C1/C(=C/c2ccc3ncsc3c2)N=C(N(Cc2ccccc2)c2ccccc2)N1Cc1ccccc1 [Example 42, (Z)-5-(benzo[d]thiazol-6-ylmethylene)-3-benzyl-2-(benzyl(phenyl)amino)-3,5-dihydro-4H-imidazol-4-one]	> 10000 nM	> 10000 nM	> 10000 nM
CN(C1=N/C(=C\c2ccc3ncsc3c2)C(=O)N1)c1ccc(N)cc1 [Example 44, (Z)-2-((4-aminophenyl)(methyl)amino)-5-(benzo[d]thiazol-6-ylmethylene)-3,5-dihydro-4H-imidazol-4-one]	1000 to 10000 nM	100 to 1000 nM	100 to 1000 nM
CC(C)NC1=N/C(=C\c2ccc3ncsc3c2)C(=O)N1C [Example 45, (Z)-5-(benzo[d]thiazol-6-ylmethylene)-2-(isopropylamino)-3-methyl-3,5-dihydro-4H-imidazol-4-one]	1000 to 10000 nM	100 to 1000 nM	100 to 1000 nM
Cn1cnc2ccc(/C=C3\N=C(Nc4ccccc4)NC3=O)cc21 [Example 46, (Z)-5-((1-methyl-1H-benzo[d]imidazol-6-yl)methylene)-2-(phenylamino)-3,5-dihydro-4H-imidazol-4-one]	100 to 1000 nM	< 100 nM	100 to 1000 nM
O=C1NC(Nc2ccc3ncsc3c2)=N/C1=C\c1ccc2c(c1)OCO2 [Example 47, (Z)-5-(benzo[d][1,3]dioxol-5-ylmethylene)-2-(benzo[d]thiazol-6-ylamino)-3,5-dihydro-4H-imidazol-4-one]	> 10000 nM	> 10000 nM	> 10000 nM
O=C1NC(Nc2ccc3ncsc3c2)=N/C1=C\c1ccc2ncsc2c1 [Example 48, (Z)-2-(benzo[d]thiazol-6-ylamino)-5-(benzo[d]thiazol-6-ylmethylene)-3,5-dihydro-4H-imidazol-4-one]	< 100 nM		100 to 1000 nM
O=C1NC(Nc2ccccc2)=N/C1=C\c1ccc2occc2c1 [Example 52, (Z)-5-(benzofuran-5-ylmethylene)-2-(phenylamino)-3,5-dihydro-4H-imidazol-4-one]	> 10000 nM	> 10000 nM	> 10000 nM
O=C1NC(Nc2ccccc2)=N/C1=C\c1ccc2ncccc2c1 [Example 53, (Z)-2-(phenylamino)-5-(quinolin-6-ylmethylene)-3,5-dihydro-4H-imidazol-4-one]	100 to 1000 nM	< 100 nM	> 10000 nM
CN(C1=N/C(=C\c2ccc3c(c2)OCO3)C(=O)N1)c1ccc2ncsc2c1 [Example 70, (Z)-5-(benzo[d][1,3]dioxol-5-ylmethylene)-2-(benzo[d]thiazol-6-yl(methyl)amino)-3,5-dihydro-4H-imidazol-4-one]	> 10000 nM	> 10000 nM	> 10000 nM
O=C1NC(Nc2ccc3nccnc3c2)=N/C1=C\c1ccc2ncsc2c1 [Example 82, (Z)-5-(benzo[d]thiazol-6-ylmethylene)-2-(quinoxalin-6-ylamino)-3,5-dihydro-4H-imidazol-4-one]	100 to 1000 nM		> 10000 nM
CN(C1=N/C(=C\c2ccc3ncsc3c2)C(=O)N1)c1ccc2ncsc2c1 [Example 83, (Z)-2-(benzo[d]thiazol-6-yl(methyl)amino)-5-(benzo[d]thiazol-6-ylmethylene)-3,5-dihydro-4H-imidazol-4-one]	> 10000 nM	100 to 1000 nM	100 to 1000 nM
CN(C1=N/C(=C\c2ccc3c(c2)OCCO3)C(=O)N1)c1ccc2ncsc2c1 [Example 84, (Z)-2-(benzo[d]thiazol-6-yl(methyl)amino)-5-((2,3-dihydrobenzo[b][1,4]dioxin-6-yl)methylene)-3,5-dihydro-4H-imidazol-4-one]	1000 to 10000 nM	100 to 1000 nM	> 10000 nM
NC1=N/C(=C\c2ccc3ncsc3c2)C(=O)N1 [Example 103, (Z)-2-amino-5-(benzo[d]thiazol-6-ylmethylene)-3,5-dihydro-4H-imidazol-4-one]	100 to 1000 nM	< 100 nM	100 to 1000 nM
